# Experimental data as given in article PMC2192565 (The Journal of Experimental Medicine, 1996).
# Where no end group is shown, it is not given here.
# Molecular target: HLA-DRB1*0401 (Homo sapiens, UniProt P01903+P01911, A100K/A169T/F76Y/I96L/K127E/L162R/M171V/N62H/P40V/Q125Y/R42H/S133A/S149N/S66Y/V115G/V209L/W38E)
# Assay: biochemical
# Format: binding
row,Compound,IC50 [nM]
1,CC[C@H](C)[C@H](NC(=O)[C@H](CC(N)=O)NC(=O)[C@@H](N)CCC(N)=O)C(=O)N[C@@H](CC(C)C)C(=O)N[C@@H](CC(C)C)C(=O)N[C@@H](CO)C(=O)N[C@@H](CC(N)=O)C(=O)N[C@@H](C)C(=O)N1CCC[C@H]1C(=O)N[C@@H](CC(C)C)C(=O)NCC(=O)N1CCC[C@H]1C(=O)N[C@@H](CCC(N)=O)C(=O)N[C@@H](Cc1ccccc1)C(=O)N1CCC[C@H]1C(=O)O [Ty 56-70],225
2,DFSYLQDSDPDSFQD [Y449 F],1470
3,DQSYLQDSDPDSFQD [Y449 Q],918
4,DYSFLQDSDPDSFQD [Y451 F],563
5,QNFLLSNAPLGPQFP [I58 F],55
6,QNIFLSNAPLGPQFP [L59 F],321
7,QNILFSNAPLGPQFP [L60 F],1100
8,QNILLSNAPQGPQFP [L65 Q],2000
9,QNILLSNAPVGPQFP [L65 V],1500
10,QNILLSNAQLGPQFP [P64 Q],290
11,QNILLSNAVLGPQFP [P64 V],158
12,QNILLSNQPLGPQFP [A63 Q],7760
13,QNILLSNVPLGPQFP [A63 V],12
14,QNILQSNAPLGPQFP [L60 Q],750
15,QNILVSNAPLGPQFP [L60 V],612
16,QNIQLSNAPLGPQFP [L59 Q],750
17,QNIVLSNAPLGPQFP [L59 V],95
18,QNQLLSNAPLGPQFP [I58 Q],6770
19,QNVLLSNAPLGPQFP [I58 V],957
